# Measured values taken from patent US8247170B2, “Detection of penicillin tolerance in Group B Streptococcus: single nucleotide polymorphisms in penicillin binding protein 4” (priority 2008, dated 2012).
# Tested on: GBS clinical isolates and laboratory strains
# Test: Macrobroth penicillin tolerance assay
# Format: cell-based, Group B Streptococcus
# Details: then 24 h drug-free; for 10xMIC, regrowth O.D.600: Penicillin G 10×MIC90 48 h; for 30xMIC, regrowth O.D.600: Penicillin G 30×MIC90 48 h; for 100xMIC, regrowth O.D.600: Penicillin G 100×MIC90 48 h; for 300xMIC, regrowth O.D.600: Penicillin G 300×MIC90 48 h
# Experimental: Using this modified penicillin tolerance assay, tolerant strains from the GBS clinical isolates can be more efficiently identified. In this macrobroth culture format, 25 ml THB broth GBS cultures (containing clinical isolates) were grown to an early exponential growth phase (˜0.2 OD600). Cell cultures (6 ml) were collected and divided into 4 culture tubes. […] Cell cultures were shaken at 150 rpm in order to maintain cells in suspension for proper growth. Subcultures (1/20 dilution) of cells were put into fresh THB containing […] Penase (i.e., 100 μl of Penase 10,000 U stock into 4 ml THB culture). Subcultures were allowed to grow for 24 hours at 37° C. Cell growth was monitored by OD (see Example 2).
# (I) Bacterial Strains and Culture Conditions. GBS strains A909 (serotype IA), 515 (serotype IA), NEM316 (serotype III), COHI (serotype III), 2603V/R (serotype V) and O90R (non-typable) were used in this study. E. coli Top10 cells were used for the recombination experiments. GBS was cultured in Todd Hewitt broth (THB) or Tryptic Soy 5% sheep blood (TS) media and E. coli in Luria-broth (LB) medium or agar. Antibiotics were used at the following concentrations: for GBS—penicillin G (MIC90 0.06 μg ml^−1), ampicillin (MIC90 0.12 μg ml^−1), vancomycin (MIC90 2 μg ml^−1), cefazolin (MIC90 1 μg ml^−1) and chloramphenicol (5 μg ml^−1); for E. coli—ampicillin (50 μg ml^−1) and chloramphenicol (5 μg ml^−1). Both GBS and E. coli cultures were grown at 37° C. (II) Tolerance Using the MBC:MIC Ratio Method. Three GBS laboratory strains (i.e., A909, NEM316, and O90R) were cultured overnight for 18 h at 37° C. in THB. Subcultures in THB were subsequently grown to exponential phase (OD600˜0.3; i.e. 5×10^5 cfu/ml) at 37° C. Cell cultures were then exposed to different concentrations of antibiotics (Penicillin G, Ampicillin, Cefozolin or Vancomycin). […] Cell cultures were dispersed every 18 h before OD600 was measured to determine the lowest concentration of antibiotic with 90% growth inhibition (MIC90). Antibiotic treated cells (8 μl) from each well were re-suspended into PBS (100 μl) and plated (54 μl) on TS agar plates and allowed to grow for an additional 24 h at 37° C. Cell count was performed to determine the lowest concentration of antibiotic with 90% killing of original inoculums (MBC90). (III) Penicillin Killing and Regrowth Tolerance Assay by Microbroth Dilution. Three GBS laboratory strains (i.e., A909, NEM316, and O90R) were cultured overnight for 18 h at 37° C. in THB. Subcultures in THB were subsequently grown to exponential phase (OD600˜0.3) at 37° C. Cell cultures were then exposed to different concentrations of Penicillin G (Sigma, St. Louis, Mo.). […] Cell cultures were dispersed. A 1:20 dilution of cells was re-plated into new wells containing fresh THB with 500 U Penase (to degrade residual penicillin). Cell cultures were allowed to re-grow for an additional 24 h at 37° C. before the OD600 was measured. (IV) Measuring Cell Viability by Determining ATP Concentration. GBS strains were cultured for 18 h at 37° C. in THB. These cells were inoculated into fresh THB and subsequently allowed to grow to exponential phase (OD600 0.25-0.3) at 37° C. One ml of each culture was centrifuged at 5,000×g for 4 min. The cell pellet was re-suspended in ATP-free water. Cellular ATP was extracted using trichloroacetic acid (TCA) (5%) for 2 min and subsequently neutralized with Tris-EDTA-0.1M NaOAc, pH 7.75 to 10×TCA volume. The initial (in.) cellular ATP concentration ([ATP]) was measured using the ENLITEN (Promega) luciferase based reaction kit. THB cultures were then treated with 100×MIC90 Penicillin G for 22 h. The experimental (exp.) cellular ATP was extracted and the concentration was measured as stated above. Based on the calculations ([ATP] exp.)/([ATP] in./O.D. in.), differences in viability were equated with the change in [ATP]. (V) Measuring Penicillin Induced Lysis. Three GBS laboratory strains (A909, NEM316, and O90R) were cultured for 18 h at 37° C. in THB. […]
smiles,measurement,setting,value
CC1(C)S[C@@H]2[C@H](NC(=O)Cc3ccccc3)C(=O)N2[C@H]1C(=O)O [Penicillin G],"10xMIC, regrowth O.D.600",GBS strain 308 (V),−− (“−−” indicates an O.D.600 of 0.001 to 0.099)
same,"30xMIC, regrowth O.D.600",GBS strain 308 (V),−− (“−−” indicates an O.D.600 of 0.001 to 0.099)
same,"100xMIC, regrowth O.D.600",GBS strain 308 (V),−− (“−−” indicates an O.D.600 of 0.001 to 0.099)
same,"300xMIC, regrowth O.D.600",GBS strain 308 (V),−− (“−−” indicates an O.D.600 of 0.001 to 0.099)
same,"10xMIC, regrowth O.D.600",GBS strain 311 (Ib),−− (“−−” indicates an O.D.600 of 0.001 to 0.099)
same,"30xMIC, regrowth O.D.600",GBS strain 311 (Ib),−− (“−−” indicates an O.D.600 of 0.001 to 0.099)
same,"100xMIC, regrowth O.D.600",GBS strain 311 (Ib),+ (“+” indicates an O.D.600 of 0.100 to 0.250)
same,"300xMIC, regrowth O.D.600",GBS strain 311 (Ib),+ (“+” indicates an O.D.600 of 0.100 to 0.250)
same,"10xMIC, regrowth O.D.600",GBS strain 316 (V),−− (“−−” indicates an O.D.600 of 0.001 to 0.099)
same,"30xMIC, regrowth O.D.600",GBS strain 316 (V),−− (“−−” indicates an O.D.600 of 0.001 to 0.099)
same,"100xMIC, regrowth O.D.600",GBS strain 316 (V),−− (“−−” indicates an O.D.600 of 0.001 to 0.099)
same,"300xMIC, regrowth O.D.600",GBS strain 316 (V),−− (“−−” indicates an O.D.600 of 0.001 to 0.099)
same,"10xMIC, regrowth O.D.600",GBS strain 320 (III),+++ (“+++” indicates an O.D.600 of 0.751 to 1.500)
same,"30xMIC, regrowth O.D.600",GBS strain 320 (III),+++ (“+++” indicates an O.D.600 of 0.751 to 1.500)
same,"100xMIC, regrowth O.D.600",GBS strain 320 (III),+++ (“+++” indicates an O.D.600 of 0.751 to 1.500)
same,"300xMIC, regrowth O.D.600",GBS strain 320 (III),+++ (“+++” indicates an O.D.600 of 0.751 to 1.500)
same,"10xMIC, regrowth O.D.600",GBS strain 357 (NT),−− (“−−” indicates an O.D.600 of 0.001 to 0.099)
same,"30xMIC, regrowth O.D.600",GBS strain 357 (NT),−− (“−−” indicates an O.D.600 of 0.001 to 0.099)
same,"100xMIC, regrowth O.D.600",GBS strain 357 (NT),+++ (“+++” indicates an O.D.600 of 0.751 to 1.500)
same,"300xMIC, regrowth O.D.600",GBS strain 357 (NT),++ (“++” indicates an O.D.600 of 0.251 to 0.750)
same,"10xMIC, regrowth O.D.600",GBS strain 359 (V),−− (“−−” indicates an O.D.600 of 0.001 to 0.099)
same,"30xMIC, regrowth O.D.600",GBS strain 359 (V),−− (“−−” indicates an O.D.600 of 0.001 to 0.099)
same,"100xMIC, regrowth O.D.600",GBS strain 359 (V),−− (“−−” indicates an O.D.600 of 0.001 to 0.099)
same,"300xMIC, regrowth O.D.600",GBS strain 359 (V),−− (“−−” indicates an O.D.600 of 0.001 to 0.099)
same,"10xMIC, regrowth O.D.600",GBS strain 367 (V),−− (“−−” indicates an O.D.600 of 0.001 to 0.099)
same,"30xMIC, regrowth O.D.600",GBS strain 367 (V),−− (“−−” indicates an O.D.600 of 0.001 to 0.099)
same,"100xMIC, regrowth O.D.600",GBS strain 367 (V),−− (“−−” indicates an O.D.600 of 0.001 to 0.099)
same,"300xMIC, regrowth O.D.600",GBS strain 367 (V),−− (“−−” indicates an O.D.600 of 0.001 to 0.099)
same,"10xMIC, regrowth O.D.600",GBS strain 377 (V),−− (“−−” indicates an O.D.600 of 0.001 to 0.099)
same,"30xMIC, regrowth O.D.600",GBS strain 377 (V),−− (“−−” indicates an O.D.600 of 0.001 to 0.099)
same,"100xMIC, regrowth O.D.600",GBS strain 377 (V),−− (“−−” indicates an O.D.600 of 0.001 to 0.099)
same,"300xMIC, regrowth O.D.600",GBS strain 377 (V),−− (“−−” indicates an O.D.600 of 0.001 to 0.099)
same,"10xMIC, regrowth O.D.600",GBS strain 378 (NT),−− (“−−” indicates an O.D.600 of 0.001 to 0.099)
same,"30xMIC, regrowth O.D.600",GBS strain 378 (NT),−− (“−−” indicates an O.D.600 of 0.001 to 0.099)
same,"100xMIC, regrowth O.D.600",GBS strain 378 (NT),−− (“−−” indicates an O.D.600 of 0.001 to 0.099)
same,"300xMIC, regrowth O.D.600",GBS strain 378 (NT),−− (“−−” indicates an O.D.600 of 0.001 to 0.099)
same,"10xMIC, regrowth O.D.600",GBS strain 379 (V),−− (“−−” indicates an O.D.600 of 0.001 to 0.099)
same,"30xMIC, regrowth O.D.600",GBS strain 379 (V),−− (“−−” indicates an O.D.600 of 0.001 to 0.099)
same,"100xMIC, regrowth O.D.600",GBS strain 379 (V),−− (“−−” indicates an O.D.600 of 0.001 to 0.099)
same,"300xMIC, regrowth O.D.600",GBS strain 379 (V),−− (“−−” indicates an O.D.600 of 0.001 to 0.099)
same,"10xMIC, regrowth O.D.600",GBS strain 380 (NT),−− (“−−” indicates an O.D.600 of 0.001 to 0.099)
same,"30xMIC, regrowth O.D.600",GBS strain 380 (NT),−− (“−−” indicates an O.D.600 of 0.001 to 0.099)
same,"100xMIC, regrowth O.D.600",GBS strain 380 (NT),+++ (“+++” indicates an O.D.600 of 0.751 to 1.500)
same,"300xMIC, regrowth O.D.600",GBS strain 380 (NT),+ (“+” indicates an O.D.600 of 0.100 to 0.250)
same,"10xMIC, regrowth O.D.600",GBS strain 388 (NT),−− (“−−” indicates an O.D.600 of 0.001 to 0.099)
same,"30xMIC, regrowth O.D.600",GBS strain 388 (NT),−− (“−−” indicates an O.D.600 of 0.001 to 0.099)
same,"100xMIC, regrowth O.D.600",GBS strain 388 (NT),−− (“−−” indicates an O.D.600 of 0.001 to 0.099)
same,"300xMIC, regrowth O.D.600",GBS strain 388 (NT),−− (“−−” indicates an O.D.600 of 0.001 to 0.099)
same,"10xMIC, regrowth O.D.600",GBS strain 389 (Ia),++ (“++” indicates an O.D.600 of 0.251 to 0.750)
same,"30xMIC, regrowth O.D.600",GBS strain 389 (Ia),+++ (“+++” indicates an O.D.600 of 0.751 to 1.500)
same,"100xMIC, regrowth O.D.600",GBS strain 389 (Ia),+++ (“+++” indicates an O.D.600 of 0.751 to 1.500)
same,"300xMIC, regrowth O.D.600",GBS strain 389 (Ia),+++ (“+++” indicates an O.D.600 of 0.751 to 1.500)
same,"10xMIC, regrowth O.D.600",GBS strain 391 (NT),++ (“++” indicates an O.D.600 of 0.251 to 0.750)
same,"30xMIC, regrowth O.D.600",GBS strain 391 (NT),++ (“++” indicates an O.D.600 of 0.251 to 0.750)
same,"100xMIC, regrowth O.D.600",GBS strain 391 (NT),++ (“++” indicates an O.D.600 of 0.251 to 0.750)
same,"300xMIC, regrowth O.D.600",GBS strain 391 (NT),++ (“++” indicates an O.D.600 of 0.251 to 0.750)
same,"10xMIC, regrowth O.D.600",GBS strain 399 (V),−− (“−−” indicates an O.D.600 of 0.001 to 0.099)
same,"30xMIC, regrowth O.D.600",GBS strain 399 (V),+ (“+” indicates an O.D.600 of 0.100 to 0.250)
same,"100xMIC, regrowth O.D.600",GBS strain 399 (V),+ (“+” indicates an O.D.600 of 0.100 to 0.250)
same,"300xMIC, regrowth O.D.600",GBS strain 399 (V),+ (“+” indicates an O.D.600 of 0.100 to 0.250)
